Test results from US20260092057A1, “BCL-XL/BCL-2 DEGRADERS AND USES THEREOF” (Kymera Therapeutics, Inc., priority 2022, published 2026).
Like-named read-outs stand apart in the source and are kept apart here.

How the values were obtained:
[1] = tested on: MOLT-4 cells; experiment: CTG (CellTiter-Glo) cell viability assay, MOLT-4; assay type: cell-based; details: MOLT-4, 3 day, read-out: CTG Cell Viability Assay - MOLT-4 3 day: Average external-IC50
Experimental: (§1) Compound-mediated viability effect on MOLT-4 and Caki-2 was quantitatively determined using the CellTiter-Glo® Luminescent Cell Viability Assay kit from Promega (Catalog number G7570) following manufacturer's recommended procedures. Briefly, MOLT-4 and Caki-2 cells were seeded into 384 well plates (Grenier Bio-One, Catalog number 781080) with a density of 10,000 cells per well. Compounds were then added to the assay plate with final top concentration of 10 µM and 1:3 dilution series with total of 9 doses. The final DMSO concentration is normalized to 0.2%. The assay plates were incubated at 37° C. for 3 days under 5% CO2. Then the assay plate was equilibrated at room temperature for 10 minutes. To determine cell viability, 30 uL CellTiter Glo reagent was added to each well and the assay plate was centrifuged at 1000 rpm for 30 second, incubated at room temperature for 10 min, and analyzed by detecting the luminescence using a multimode plate reader (EnVision 2105, PerkinElmer). The data was then analyzed by software Prism 7.0 from GraphPad and the dose response curves are fit using a three-parameter logistic equation to calculate IC50.
(§2) The letter codes for MOLT-4 IC50 include: A (<0.1 μM); B (0.1-1.0 μM); C (>1.0-3.0 μM); and D (>3.0 μM). The letter codes for Caki-2 IC50 include: A (<5 μM); B (5-10 μM); C (>10-30.0 μM); and D (>30.0 μM).

[2] = tested on: Caki-2 cells; experiment: CTG (CellTiter-Glo) cell viability assay, Caki-2; assay type: cell-based; details: Caki-2, 3-day, read-out: CTG Chempartner/PHA- Caki-2 3-day: Average external-IC50
Experimental: as §1, §2

IC50 ([1]; Homo sapiens, MOLT-4, 72 h)	IC50 [1]	SMILES	IC50 ([2]; Homo sapiens, CAKI-2, 72 h)	IC50 [2]
> 3000 nM		Cc1ncsc1-c1ccc(CNC(=O)[C@@H]2C[C@@H](O)CN2C(=O)[C@@H](NC(=O)C2(F)CC2)C(C)(C)C)c(OCCCCCCC(=O)N2CCN(Cc3ccc(-c4ccc(Cl)cc4)c(CN4CCN(c5ccc(C(=O)NS(=O)(=O)c6ccc(N[C@H](CCN(C)C)CSc7ccccc7)c([N+](=O)[O-])c6)cc5)CC4)c3)CC2)c1 [I-18]	> 30000 nM	
< 100 nM		Cc1ncsc1-c1ccc([C@H](C)NC(=O)[C@@H]2C[C@@H](O)CN2C(=O)[C@@H](NC(=O)CCCCCCN2CCN(CCCNc3ccc(S(=O)(=O)NC(=O)c4ccc(N5CCN(CC6=C(c7ccc(Cl)cc7)CC(C)(C)CC6)CC5)cc4Oc4cnc5[nH]ccc5c4)cc3S(=O)(=O)C(F)(F)F)CC2)C(C)(C)C)cc1 [I-137]	> 30000 nM	
> 3000 nM		Cc1ncsc1-c1ccc([C@H](C)NC(=O)[C@@H]2C[C@@H](O)CN2C(=O)[C@@H](NC(=O)CCCCCC(=O)N(C)CCCNc2ccc(S(=O)(=O)NC(=O)c3ccc(N4CCN(Cc5ccccc5-c5ccc(Cl)cc5)CC4)cc3Oc3cnc4[nH]ccc4c3)cc2S(=O)(=O)C(F)(F)F)C(C)(C)C)cc1 [I-61]	> 30000 nM	
> 3000 nM		Cc1ncsc1-c1ccc([C@H](C)NC(=O)[C@@H]2C[C@@H](O)CN2C(=O)[C@@H](NC(=O)CCCCCC(=O)NCCCNc2ccc(S(=O)(=O)NC(=O)c3ccc(N4CCN(CC5=C(c6ccc(Cl)cc6)CC(C)(C)CC5)CC4)cc3Oc3cnc4[nH]ccc4c3)cc2S(=O)(=O)C(F)(F)F)C(C)(C)C)cc1 [I-76]	> 30000 nM	
> 3000 nM		Cc1ncsc1-c1ccc([C@H](C)NC(=O)[C@@H]2C[C@@H](O)CN2C(=O)[C@@H](NC(=O)CCCCCC(=O)N2CCN(CCNc3ccc(S(=O)(=O)NC(=O)c4ccc(N5CCN(CC6=C(c7ccc(Cl)cc7)CC(C)(C)CC6)CC5)cc4Oc4cnc5[nH]ccc5c4)cc3S(=O)(=O)C(F)(F)F)CC2)C(C)(C)C)cc1 [I-97]	> 30000 nM	
> 3000 nM		Cc1ncsc1-c1ccc([C@H](C)NC(=O)[C@@H]2C[C@@H](O)CN2C(=O)[C@@H](NC(=O)CCCC(=O)N2CCN(CCCNc3ccc(S(=O)(=O)NC(=O)c4ccc(N5CCN(CC6=C(c7ccc(Cl)cc7)CC(C)(C)CC6)CC5)cc4Oc4cnc5[nH]ccc5c4)cc3S(=O)(=O)C(F)(F)F)CC2)C(C)(C)C)cc1 [I-78]	> 30000 nM	
> 3000 nM		Cc1ncsc1-c1ccc([C@H](C)NC(=O)[C@@H]2C[C@@H](O)CN2C(=O)[C@@H](NC(=O)CCCCCC(=O)N2CCN(CC[C@H](CSc3ccccc3)Nc3ccc(S(=O)(=O)NC(=O)c4ccc(NC5CC(C)C5)cc4)cc3S(=O)(=O)C(F)(F)F)CC2)C(C)(C)C)cc1 (stereo partly shown) [I-44]	> 30000 nM	
> 3000 nM		Cc1ncsc1-c1ccc([C@H](C)NC(=O)[C@@H]2C[C@@H](O)CN2C(=O)[C@@H](NC(=O)CCCCCC(=O)N2CCN(CC[C@H](CSc3ccccc3)Nc3ccc(S(=O)(=O)NC(=O)c4ccc(N5CCC6(CN(C)C6)C5)cc4)cc3S(=O)(=O)C(F)(F)F)CC2)C(C)(C)C)cc1 [I-50]	> 30000 nM	
> 3000 nM		Cc1ncsc1-c1ccc([C@H](C)NC(=O)[C@@H]2C[C@@H](O)CN2C(=O)[C@@H](NC(=O)CCCCCN(C)CCCNc2ccc(S(=O)(=O)NC(=O)c3ccc(N4CCC([C@@H](O)c5ccccc5-c5ccc(Cl)cc5)CC4)cc3Oc3cnc4[nH]ccc4c3)cc2S(=O)(=O)C(F)(F)F)C(C)(C)C)cc1 [I-66]	> 30000 nM	
> 3000 nM		Cc1ncsc1-c1ccc([C@H](C)NC(=O)[C@@H]2C[C@@H](O)CN2C(=O)[C@@H](NC(=O)CCCc2ccc(NCCNc3ccc(S(=O)(=O)NC(=O)c4ccc(N5CCN(CC6=C(c7ccc(Cl)cc7)CC(C)(C)CC6)CC5)cc4Oc4cnc5[nH]ccc5c4)cc3S(=O)(=O)C(F)(F)F)cc2)C(C)(C)C)cc1 [I-101]	> 30000 nM	
> 3000 nM		Cc1ncsc1-c1ccc([C@H](C)NC(=O)[C@@H]2C[C@@H](O)CN2C(=O)[C@@H](NC(=O)CCCCCNc2ccc(S(=O)(=O)NC(=O)c3ccc(N4CCN(CC5=C(c6ccc(Cl)cc6)CC(C)(C)CC5)CC4)cc3Oc3cnc4[nH]ccc4c3)cc2S(=O)(=O)C(F)(F)F)C(C)(C)C)cc1 [I-80]	> 30000 nM	
1000 to 3000 nM		Cc1ncsc1-c1ccc([C@H](C)NC(=O)[C@@H]2C[C@@H](O)CN2C(=O)[C@@H](NC(=O)CCCCCC(=O)N2CCN(CC[C@H](CSc3ccccc3)Nc3ccc(S(=O)(=O)NC(=O)c4ccc(N5CCC6(CC5)CC(N5CCC[C@H]5c5ccccc5C5CC5)C6)cc4)cc3S(=O)(=O)C(F)(F)F)CC2)C(C)(C)C)cc1 [I-88]	> 30000 nM	
> 3000 nM		Cc1ncsc1-c1ccc([C@H](C)NC(=O)[C@@H]2C[C@@H](O)CN2C(=O)[C@@H](NC(=O)CCCCCC(=O)N2CCN(CCCNc3ccc(S(=O)(=O)NC(=O)c4ccc(N5CCC(C)(C)CC5)cc4Oc4cnc5[nH]ccc5c4)cc3S(=O)(=O)C(F)(F)F)CC2)C(C)(C)C)cc1 [I-54]	> 30000 nM	
> 3000 nM		Cc1ncsc1-c1ccc([C@H](C)NC(=O)[C@@H]2C[C@@H](O)CN2C(=O)[C@@H](NC(=O)CCCCCN(CCO)CCCNc2ccc(S(=O)(=O)NC(=O)c3ccc(N4CCN(CC5=C(c6ccc(Cl)cc6)CC(C)(C)CC5)CC4)cc3Oc3cnc4[nH]ccc4c3)cc2S(=O)(=O)C(F)(F)F)C(C)(C)C)cc1 [I-100]	> 30000 nM	
> 3000 nM		Cc1ncsc1-c1ccc([C@H](C)NC(=O)[C@@H]2C[C@@H](O)CN2C(=O)[C@@H](NC(=O)CCCCCC(=O)N2CCN(CC[C@H](CSc3ccccc3)Nc3ccc(S(=O)(=O)NC(=O)c4ccc(N5CC6(CCC6)C5)cc4)cc3S(=O)(=O)C(F)(F)F)CC2)C(C)(C)C)cc1 [I-45]	> 30000 nM	
> 3000 nM		Cc1ncsc1-c1ccc([C@H](C)NC(=O)[C@@H]2C[C@@H](O)CN2C(=O)[C@@H](NC(=O)CCCCCC(=O)N2CCN(CC[C@H](CSc3ccccc3)Nc3ccc(S(=O)(=O)NC(=O)c4ccc(N5CC6CN(C)CC6C5)cc4)cc3S(=O)(=O)C(F)(F)F)CC2)C(C)(C)C)cc1 (stereo partly shown) [I-47]	> 30000 nM	
	100 to 1000 nM	Cc1ncsc1-c1ccc([C@H](C)NC(=O)[C@@H]2C[C@@H](O)CN2C(=O)[C@@H](NC(=O)CCCCCC(=O)N2CCN(C[C@]3(C)CCC(c4ccc(Cl)cc4)=C(CN4CCN(c5ccc(C(=O)NS(=O)(=O)c6ccc(NCCCN7CCOCC7)c(S(=O)(=O)C(F)(F)F)c6)c(Oc6cnc7[nH]ccc7c6)c5)CC4)C3)CC2)C(C)(C)C)cc1 [I-132]		> 30000 nM
> 3000 nM		Cc1ncsc1-c1ccc([C@H](C)NC(=O)[C@@H]2C[C@@H](O)CN2C(=O)[C@@H](NC(=O)CCCCCC(=O)N2CCN(c3ccc(-c4ccc(Cl)cc4)c([C@@H](O)C4CCN(c5ccc(C(=O)NS(=O)(=O)c6ccc(N[C@H](CCN(C)CCO)CSc7ccccc7)c(S(=O)(=O)C(F)(F)F)c6)cc5)CC4)c3)CC2)C(C)(C)C)cc1 (single isomer, unassigned) [I-114]	> 30000 nM	
100 to 1000 nM		C#Cc1ccc([C@H](C)NC(=O)[C@@H]2C[C@@H](O)CN2C(=O)[C@@H](NC(=O)CCCCCC(=O)N2CCN(CCCNc3ccc(S(=O)(=O)NC(=O)c4ccc(N5CCN(CC6=C(c7ccc(Cl)cc7)CC(C)(C)CC6)CC5)cc4Oc4cnc5[nH]ccc5c4)cc3S(=O)(=O)C(F)(F)F)CC2)C(C)(C)C)c(OC)c1 [I-103]	> 30000 nM	
1000 to 3000 nM		Cc1ncsc1-c1ccc([C@H](C)NC(=O)[C@@H]2C[C@@H](O)CN2C(=O)[C@@H](NC(=O)CCCCCC(=O)N(C)CC[C@H](CSc2ccccc2)Nc2ccc(S(=O)(=O)NC(=O)c3ccc(N4CCC([C@@H](O)c5ccccc5-c5ccc(Cl)cc5)CC4)cc3)cc2S(=O)(=O)C(F)(F)F)C(C)(C)C)cc1 [I-72]	10000 to 30000 nM	
